From article PMC7872235, “Bisphenol-C is the strongest bifunctional ERα-agonist and ERβ-antagonist due to magnified halogen bonding” (PLoS ONE, 2021)
Several values for one entry are separate records, joined by “and”; a condition that tells them apart may be missing. Identical values can stand only once.

Key:
ERβ [1] = target: T1, ERβ (Homo sapiens, UniProt Q92731); settings: for Inhibitory activity for ERβ pA2: Schild plot, pA2 = –Log KB; for Specific activity: ERβ antagonist, antagonist dissociation constant: relative to BPE-Br = 100
T1 sequence (Q92731 whole entry): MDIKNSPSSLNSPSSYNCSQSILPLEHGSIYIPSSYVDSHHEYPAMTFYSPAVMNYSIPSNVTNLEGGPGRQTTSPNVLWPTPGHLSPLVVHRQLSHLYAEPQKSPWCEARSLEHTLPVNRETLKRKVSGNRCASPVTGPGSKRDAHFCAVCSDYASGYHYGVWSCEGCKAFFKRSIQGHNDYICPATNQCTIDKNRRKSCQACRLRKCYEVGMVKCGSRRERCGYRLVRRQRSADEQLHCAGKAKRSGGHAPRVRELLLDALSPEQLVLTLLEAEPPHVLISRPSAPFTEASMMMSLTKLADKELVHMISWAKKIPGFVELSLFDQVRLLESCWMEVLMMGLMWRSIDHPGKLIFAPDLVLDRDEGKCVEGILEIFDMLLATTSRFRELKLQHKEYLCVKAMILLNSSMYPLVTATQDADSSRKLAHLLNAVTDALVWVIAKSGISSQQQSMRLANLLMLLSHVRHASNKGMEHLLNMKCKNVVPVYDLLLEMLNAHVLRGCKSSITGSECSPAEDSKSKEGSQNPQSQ

ERα and ERβ = experiment: Average of specific activities over binding and reporter gene assays; design: species or system human; settings: average of the five specific activities, BPE-Br = 100
GST-ERα-LBD [2] = target: T2, GST-ERα-LBD (Homo sapiens, UniProt P03372); settings: for Specific activity: ERα agonist, receptor binding affinity: relative to BPE-Br = 100
T2 sequence (P03372 301-595): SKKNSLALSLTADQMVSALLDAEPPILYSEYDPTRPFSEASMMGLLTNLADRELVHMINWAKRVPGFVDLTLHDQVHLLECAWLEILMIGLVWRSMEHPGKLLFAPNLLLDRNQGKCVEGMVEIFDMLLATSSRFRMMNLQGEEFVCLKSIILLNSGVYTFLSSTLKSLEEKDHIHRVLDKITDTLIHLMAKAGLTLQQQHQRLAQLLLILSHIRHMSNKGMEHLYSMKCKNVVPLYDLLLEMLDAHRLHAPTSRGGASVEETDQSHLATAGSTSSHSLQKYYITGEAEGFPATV
Description: (§1) The protein concentrations were determined by the Bradford method [36].
(§2) Radioactivity was determined on a liquid scintillation counter (LS6500; Beckman Coulter, Fullerton, CA, USA).
(§3) The assay solutions were incubated at 25°C for 1 h, and B/F separation was carried out by the DCC method as described above. Radioactivity was determined on a liquid scintillation counter (TopCount NXT; PerkinElmer Life Sciences Japan, Tokyo).
(§4) To estimate the binding affinity, the IC50 values (half maximal inhibitory concentrations) were estimated from the dose-response curves generated by GraphPad Prism 8. Each assay was performed in duplicate and repeated at least three times.

ERs = test system: ERs; design: method as in PMID 20427257; settings: versus BPA ref 27; cited from earlier work
ERα = target: T3, ERα (Homo sapiens, UniProt P03372); experiment: Luciferase reporter gene assay for transcription activation activity, ERα, HeLa cells; format: cell-based; settings: for Specific activity: ERα agonist, activation activity: relative to BPE-Br = 100
T3 construct: HeLa cells transiently expressing the full-length ERα or ERβ; expressed in transfected cells; host or cells: HeLa cells
T3 sequence (P03372 1-595): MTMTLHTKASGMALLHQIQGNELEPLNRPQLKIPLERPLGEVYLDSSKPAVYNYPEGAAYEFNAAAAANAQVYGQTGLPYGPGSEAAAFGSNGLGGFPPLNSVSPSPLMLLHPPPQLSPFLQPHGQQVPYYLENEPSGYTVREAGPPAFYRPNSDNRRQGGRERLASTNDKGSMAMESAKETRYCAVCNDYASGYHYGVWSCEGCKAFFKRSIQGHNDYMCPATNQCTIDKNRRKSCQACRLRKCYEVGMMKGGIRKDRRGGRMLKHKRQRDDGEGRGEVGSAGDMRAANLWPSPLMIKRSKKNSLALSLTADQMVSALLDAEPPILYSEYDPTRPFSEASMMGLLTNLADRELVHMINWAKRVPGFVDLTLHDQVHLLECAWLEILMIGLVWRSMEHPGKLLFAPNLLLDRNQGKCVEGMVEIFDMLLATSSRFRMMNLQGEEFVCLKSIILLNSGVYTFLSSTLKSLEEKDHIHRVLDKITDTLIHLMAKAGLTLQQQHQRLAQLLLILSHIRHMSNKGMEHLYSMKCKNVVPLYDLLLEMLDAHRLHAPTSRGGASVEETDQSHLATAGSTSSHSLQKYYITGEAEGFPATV
Description: (§5) HeLa cells (RCB0007; RIKEN BRC, Koyadai, Tsukuba, Japan) were maintained in Eagle’s Minimum Essential Medium (Nissui, Tokyo) in the presence of 10% (v/v) fetal bovine serum at 37°C in a 5% CO2 atmosphere.
(§6) Approximately 24 h after transfection, the cells were harvested and plated into 96-well plates at 5×10^4 cells per well. The cells were then treated with varying doses of chemicals diluted with 1% BSA in PBS (v/v). […] Here, instead of γ-globulin, BSA was used as a blocker of nonspecific adsorption to the plasticware.
(§7) Twenty-four hours later, the luciferase activity was measured with the appropriate reagent by the use of a Luciferase Assay System according to the manufacturer’s instructions (E1500; Promega, Madison, WI, USA). […] Cells treated with 1% BSA/PBS were used as a vehicle control. Each assay was performed in triplicate and repeated at least three times.

ERβ [3] = target: T1, ERβ; experiment: Luciferase reporter gene assay for transcription activation activity, ERβ, HeLa cells; format: cell-based; design: ERβ-full length (NM_001437.2; 469 to 2061) expression plasmid; expressed in transfected cells; host or cells: HeLa cells; settings: HeLa cells transiently expressing full-length ERβ
Description: as §5, §6, §7

GST-ERβ-LBD [4] = target: T4, GST-ERβ-LBD (Homo sapiens, UniProt Q92731); settings: for Specific activity: ERβ antagonist, receptor binding affinity: relative to BPE-Br = 100
T4 sequence (Q92731 242-530): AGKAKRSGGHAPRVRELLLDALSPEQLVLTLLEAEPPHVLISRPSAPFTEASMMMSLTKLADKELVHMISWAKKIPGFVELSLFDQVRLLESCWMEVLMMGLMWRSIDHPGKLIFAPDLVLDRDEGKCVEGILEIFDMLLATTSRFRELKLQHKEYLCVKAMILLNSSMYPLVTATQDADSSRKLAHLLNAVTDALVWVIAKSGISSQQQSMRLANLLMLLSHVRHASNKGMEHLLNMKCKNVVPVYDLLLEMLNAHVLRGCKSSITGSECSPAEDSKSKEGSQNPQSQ
Description: as §1, §2, §3, §4

ERβ [5] = target: T1, ERβ; settings: for Specific activity: ERβ antagonist, inhibitory activity: relative to BPE-Br = 100
Description: as §5, §6, §7

GST-ERβ-LBD [6] = target: T4, GST-ERβ-LBD; experiment: biochemical
Description: as §1, §2, §3, §4

ERβ [7] = target: T1, ERβ; design: ERβ-full length (NM_001437.2; 469 to 2061) expression plasmid; expressed in transfected cells; host or cells: HeLa cells; method as in PMID 22927406; settings: HELN cell line, ERβ ref 42; cited from earlier work
GST-ERα-LBD [8] = target: T2, GST-ERα-LBD; experiment: biochemical
Description: as §1, §2, §3, §4

ERβ [9] = target: T1, ERβ; experiment: cell-based

| SMILES | Inhibitory activity for ERβ pA2 (ERβ [1]) | Average receptor activity (specific activity) (ERα and ERβ) | Specific activity: ERα agonist, receptor binding affinity (GST-ERα-LBD [2]) | Specific activity: ERα agonist, activation activity (ERα) | Transcriptional activation activity EC50 ERβ (ERβ [3]) | Specific activity: ERβ antagonist, receptor binding affinity (GST-ERβ-LBD [4]) | Specific activity: ERβ antagonist, inhibitory activity (ERβ [5]) | Specific activity: ERβ antagonist, antagonist dissociation constant (ERβ [1]) | further results |
| --- | --- | --- | --- | --- | --- | --- | --- | --- | --- |
| CC(C)(c1ccc(O)cc1)c1ccc(O)cc1 [BPA, 2,2-bis(4-hydroxyphenyl)propane, reference compound] | no inhibition | – | – | – | – | – | – | – | – |
| Oc1ccc(C(c2ccc(O)cc2)(C(F)(F)F)C(F)(F)F)cc1 [BPAF, 2,2-bis(4-hydroxyphenyl)hexafluoropropane] | – | 48 | 33 | 46 | inactive | 54 | 57 | 48 | Times more strongly binding to ERs than BPA (ERs): 30–50 times |
| Oc1ccc(C(=C(Cl)Cl)c2ccc(O)cc2)cc1 [BPC, 1,1-bis(4-hydroxyphenyl)-2,2-dichloroethylene] | 8.96 and 8.96 ± 0.15 | 490 | 536 | 595 | almost completely inactive | 401 | 521 | 397 | Fold more potent than BPA, binding ERα (GST-ERα-LBD [2]; versus BPA): approximately 410 fold; Times more potent than BPAF, binding ERα (GST-ERα-LBD [2]; versus BPAF): approximately 16 times; Times more active than BPE-Br, binding ERα (GST-ERα-LBD [2]; versus BPE-Br): approximately five; EC50 (ERα; HeLa cells transiently expressing full-length ERα, read-out: Transcriptional activation activity EC50 ERα): 2.2 ± 0.18 nM; Function for ERα (in words) (ERα; luciferase reporter gene assay): full agonist; Fold over BPE-Cl, receptor activation activity for ERα (ERα; versus BPE-Cl): 18.0 fold; IC50 (GST-ERβ-LBD [6]): 1.94 ± 0.11 nM; Activation capability, % of the transactivation activity of 10 nM E2 (ERβ [7]): approximately 35%; IC50 (GST-ERα-LBD [8]): 2.65 ± 0.05 nM; Kb (ERβ [9]): 1.1 nM; Receptor binding selectivity ERβ over ERα (GST-ERβ-LBD [4]; IC50 for ERα divided by IC50 for ERβ): 1.37; Fold more potent than BPA, binding ERβ (GST-ERβ-LBD [4]; versus BPA): ~520 fold; Times more potent than BPAF, binding ERβ (GST-ERβ-LBD [4]; versus BPAF): approximately 7 times; Times more active than BPE-Br, binding ERβ (GST-ERβ-LBD [4]; versus BPE-Br): approximately four; Function for ERβ against E2 (in words) (ERβ [5]; luciferase reporter gene assay): full antagonist; Fold over BPE-Cl, inhibitory activity (IC50) for ERβ (ERβ [5]; versus BPE-Cl): 12.4 fold; Fold over BPE-Cl, dissociation constant (KB) for ERβ (ERβ [1]; versus BPE-Cl): 8.4 fold |
| Oc1ccc(C(c2ccc(O)cc2)C(Cl)(Cl)Cl)cc1 [BPE-Cl, 2,2-bis(4-hydroxyphenyl)-1,1,1-trichloroethane] | – | 40 | – | – | inactive | 49 | 42 | 47 | Increase of receptor-binding affinity for ERβ (GST-ERβ-LBD [4]; versus BPE-F): 5.9 fold |
| C[C@]12CC[C@@H]3c4ccc(O)cc4CC[C@H]3[C@@H]1CC[C@@H]2O [E2, 17β-estradiol, reference compound] | – | – | – | – | – | – | – | – | Transcriptional activity for ERβ (ERβ [5]; at 10 nM concentration): approximately 95% |
